This assay relates to Human immunodeficiency virus 1. The assay can be described thus: Antiviral activity against HIV1. It is filed as functional, organism-based. The conditions noted are these: Human immunodeficiency virus 1, read-out: pIC50 (converted).

Each structure is given as a SMILES string.

As to `COc1cc(C)cc(S(=O)(=O)c2cccc(N)c2C#N)c1`, the IC50 is 0.05 µM.

In the case of `N#Cc1c(N)cccc1S(=O)(=O)c1ccccc1Cl`, the IC50 was 4.1 µM. For the molecule `N#Cc1c(N)cccc1S(=O)(=O)c1ccc(Cl)cc1`, the IC50 was 3 µM. As for `N#Cc1cccc(Sc2cccc(N)c2C#N)c1`, the IC50 is 1.73 µM. Turning to `COc1cc([S+]([O-])c2cccc(N)c2C#N)cc(C(F)(F)F)c1` (stereo not drawn), the IC50 was 2.07 µM. The result for `Cc1ccc(S(=O)(=O)c2cccc(N)c2C#N)cc1` reads 9.51 µM; that for `N#Cc1ccc(Sc2cccc(N)c2C#N)cc1`, 43.8 µM. With `Cc1cc(C)cc(S(=O)(=O)c2cccc(N)c2C#N)c1` the figure was 0.01 µM. The result for `N#Cc1c(N)cccc1Sc1cccc(N)c1` reads 31.5 µM; that for `N#Cc1c(N)cccc1Sc1cccc(Cl)c1`, 7.4 µM. For the molecule `COc1cc(Sc2cccc(N)c2C#N)cc(C(F)(F)F)c1`, the IC50 was 5.11 µM.

`COc1ccccc1[S+]([O-])c1cccc(N)c1C#N` (stereo not drawn): the IC50 was 4.8 µM. As for `N#Cc1c(N)cccc1Sc1ccccc1`, the IC50 was 14.6 µM. With `Cc1ccccc1Sc1cccc(N)c1C#N` the figure was 16 µM. On to `CCOc1cc(C)cc(S(=O)(=O)c2cccc(N)c2C#N)c1`, for which the IC50 is 0.06 µM. The result for `N#Cc1c(N)cccc1S(=O)(=O)c1cccc(Br)c1` reads 0.539 µM. For `N#Cc1c(N)cccc1[S+]([O-])c1ccccc1Br` (stereo not drawn), the IC50 is 39.2 µM. With `Cc1cc(C)cc(Sc2cccc(N)c2C#N)c1`, the IC50 was 0.429 µM. Turning to `N#Cc1c(N)cccc1[S+]([O-])c1cccc(C(F)(F)F)c1` (stereo not drawn), the IC50 is 40 µM.

For the molecule `N#Cc1c(N)cccc1S(=O)(=O)c1cccc(F)c1`, the IC50 was 3 µM. As to `N#Cc1c(N)cccc1Sc1cccc(Br)c1`, the IC50 was 5.11 µM. The result for `COc1cc(C(F)(F)F)cc(S(=O)(=O)c2cccc(N)c2C#N)c1` reads 0.09 µM. Take `COc1cc(C)cc(Sc2cccc(N)c2C#N)c1`: the IC50 is 2 µM.

For the molecule `CCCCOc1cc(C)cc(S(=O)(=O)c2cccc(N)c2C#N)c1`, the IC50 is 0.6 µM. With `COc1ccc(S(=O)(=O)c2cccc(N)c2C#N)cc1` the figure was 25 µM; with `Cc1cccc([S+]([O-])c2cccc(N)c2C#N)c1` (stereo not drawn), 29.2 µM.

For the molecule `COc1cccc([S+]([O-])c2cccc(N)c2C#N)c1` (stereo not drawn), the IC50 was 16 µM. `N#Cc1c(N)cccc1S(=O)(=O)c1ccccc1Br`: the IC50 is 5 µM.

Regarding `Cc1cc(Cl)cc([S+]([O-])c2cccc(N)c2C#N)c1` (stereo not drawn), the IC50 was 0.32 µM. On to `Cc1cc(Cl)cc(Sc2cccc(N)c2C#N)c1`, for which the IC50 is 1.76 µM. `N#Cc1c(N)cccc1[S+]([O-])c1cc(Cl)ccc1Cl` (stereo not drawn): the IC50 was 9.84 µM.

Turning to `N#Cc1c(N)cccc1[S+]([O-])c1cccc(Br)c1` (stereo not drawn), the IC50 is 0.08 µM. On to `N#Cc1c(N)cccc1S(=O)(=O)c1cc(Cl)ccc1Cl`, for which the IC50 was 0.3 µM. As to `COc1ccccc1S(=O)(=O)c1cccc(N)c1C#N`, the IC50 is 0.6 µM.

With `N#Cc1c(N)cccc1[S+]([O-])c1ccc(Br)cc1` (stereo not drawn), the IC50 is 20.2 µM.

As to `Cc1cc(C)cc([S+]([O-])c2cccc(N)c2C#N)c1` (stereo not drawn), the IC50 was 0.34 µM.

In the case of `Cc1cc(Cl)cc(S(=O)(=O)c2cccc(N)c2C#N)c1`, the IC50 is 0.03 µM.

On to `Cc1cccc(Sc2cccc(N)c2C#N)c1`, for which the IC50 is 6.09 µM. As to `N#Cc1c(N)cccc1Sc1cccc(F)c1`, the IC50 was 9.79 µM.

With `N#Cc1ccccc1S(=O)(=O)c1cccc(N)c1C#N`, the IC50 is 5.4 µM.

As for `N#Cc1c(N)cccc1Sc1ccccc1Cl`, the IC50 was 4.1 µM. For `Cc1ccccc1S(=O)(=O)c1cccc(N)c1C#N`, the IC50 is 2.3 µM. With `COc1ccccc1Sc1cccc(N)c1C#N`, the IC50 was 4.29 µM. `N#Cc1c(N)cccc1S(=O)(=O)c1ccccc1F`: the IC50 is 3 µM. The result for `Cc1cc(Br)cc(S(=O)(=O)c2cccc(N)c2C#N)c1` reads 0.02 µM; that for `Cc1ccc([S+]([O-])c2cccc(N)c2C#N)cc1` (stereo not drawn), 49 µM. `COc1cccc(S(=O)(=O)c2cccc(N)c2C#N)c1`: the IC50 is 0.899 µM. Turning to `N#Cc1c(N)cccc1S(=O)(=O)c1ccc(Br)cc1`, the IC50 was 20 µM. As to `N#Cc1c(N)cccc1Sc1cccc(C(F)(F)F)c1`, the IC50 was 12.8 µM.

For the molecule `N#Cc1c(N)cccc1S(=O)(=O)c1ccccc1`, the IC50 was 2 µM. With `COc1cccc(Sc2cccc(N)c2C#N)c1` the figure was 6 µM. Consider `N#Cc1cccc([S+]([O-])c2cccc(N)c2C#N)c1` (stereo not drawn), for which the IC50 was 14.2 µM. Take `Cc1cc(O)cc(S(=O)(=O)c2cccc(N)c2C#N)c1`: the IC50 was 0.429 µM. On to `N#Cc1c(N)cccc1S(=O)(=O)c1cccc(C(F)(F)F)c1`, for which the IC50 is 3.5 µM. Turning to `N#Cc1ccccc1[S+]([O-])c1cccc(N)c1C#N` (stereo not drawn), the IC50 was 3.9 µM. For the molecule `N#Cc1c(N)cccc1S(=O)(=O)c1cccc(Cl)c1`, the IC50 is 0.59 µM.

For `N#Cc1cccc(S(=O)(=O)c2cccc(N)c2C#N)c1`, the IC50 was 2.4 µM. `Cc1ccccc1[S+]([O-])c1cccc(N)c1C#N` (stereo not drawn): the IC50 was 92.9 µM. In the case of `N#Cc1c(N)cccc1S(=O)(=O)c1cc(Cl)cc(Cl)c1`, the IC50 is 0.07 µM. In the case of `N#Cc1ccc(S(=O)(=O)c2cccc(N)c2C#N)cc1`, the IC50 was 80 µM. For the molecule `CCCOc1cc(C)cc(S(=O)(=O)c2cccc(N)c2C#N)c1`, the IC50 is 0.06 µM. As to `Cc1cccc(S(=O)(=O)c2cccc(N)c2C#N)c1`, the IC50 was 0.4 µM. With `N#Cc1c(N)cccc1Sc1ccccc1Br` the figure was 30 µM.

The record behind these values is ChEMBL document CHEMBL1137741, “QSAR models for 2-amino-6-arylsulfonylbenzonitriles and congeners HIV-1 reverse transcriptase inhibitors based on linear and nonlinear regression methods” (Eur J Med Chem, 2009).
